These results are taken from BindingDB's records for doi:10.7270/Q2H130G1 (Burnham Center For Chemical Genomics, 2010).

SMILES strings stand for the structures.

The target of the test is T1, Alkaline phosphatase, tissue-nonspecific isozyme (Homo sapiens, UniProt P05186).
T1 sequence (P05186 whole entry): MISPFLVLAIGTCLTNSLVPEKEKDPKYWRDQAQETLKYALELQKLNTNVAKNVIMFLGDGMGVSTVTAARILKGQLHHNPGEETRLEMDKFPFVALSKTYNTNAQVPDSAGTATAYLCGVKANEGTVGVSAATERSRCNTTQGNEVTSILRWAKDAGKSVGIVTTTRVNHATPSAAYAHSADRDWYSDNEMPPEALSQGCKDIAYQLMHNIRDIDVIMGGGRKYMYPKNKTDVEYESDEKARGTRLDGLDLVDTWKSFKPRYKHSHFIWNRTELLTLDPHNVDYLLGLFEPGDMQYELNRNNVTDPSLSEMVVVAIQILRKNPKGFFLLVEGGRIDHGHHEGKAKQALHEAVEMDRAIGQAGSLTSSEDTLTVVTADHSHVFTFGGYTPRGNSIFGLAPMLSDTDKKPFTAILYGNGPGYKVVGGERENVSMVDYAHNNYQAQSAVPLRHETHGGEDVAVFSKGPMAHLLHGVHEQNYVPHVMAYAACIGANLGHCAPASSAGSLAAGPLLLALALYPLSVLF
Description: TNAP enzyme inhibition by screening hits, dose response, selectivity assay for mouse IAP inhibitor project, biochemical, human TNAP, uHTS hits (AID 488906).
As a reminder, the IC50 is the concentration that inhibits the measured activity by half. In the case of `Cc1ccc(Cl)c2c1NC(=O)/C2=C1/NC(=S)NC1=O`, it took 0.211 µM to reach half-maximal inhibition (IC50). The value for `Nc1nnc(CC(=O)N/N=C/C2C=C([N+](=O)[O-])C=C(Br)C2=O)s1` (stereo not given) [2-(5-azanyl-1,3,4-thiadiazol-2-yl)-N'-[(E)-(5-bromanyl-3-nitro-6-oxidanylidene-cyclohexa-2,4-dien-1-ylidene)methyl]ethanehydrazide] was 20.6 µM; that for `NS(=O)(=O)c1cc(C(=O)NNC2=c3ccccc3=NC2=O)ccc1Cl` [2-chloro-5-[[(2-oxoindol-3-yl)amino]carbamoyl]benzenesulfonamide] was over 100 µM. The result for `COc1cc(C=Nn2c(O)csc2=S)ccc1O` [3-[[(E)-(3-methoxy-4-oxidanylidene-cyclohexa-2,5-dien-1-ylidene)methyl]amino]-2-sulfanylidene-1,3-thiazolidin-4-one] reads over 100 µM. The value for `Oc1ccc(C=Nn2c(O)csc2=S)c(O)c1O` [3-[[(E)-[2,3-bis(oxidanyl)-4-oxidanylidene-cyclohexa-2,5-dien-1-ylidene]methyl]amino]-2-sulfanylidene-1,3-thiazolidin-4-one] was 58.5 µM; that for `CC1NON=C1C(=O)NN=CC1=CC(=O)C(=O)C=C1` (stereo not given) [4-Methyl-furazan-3-carboxylic acid (3,4-dihydroxy-benzylidene)-hydrazide] was 16.8 µM. The compound `Oc1ccc(CN=Nc2cc(N3CCCC3)nc(N3CCCC3)n2)cc1O` [(4Z)-4-[[2-(2,6-dipyrrolidin-1-ylpyrimidin-4-yl)hydrazinyl]methylidene]-2-hydroxycyclohexa-2,5-dien-1-one] had an IC50 of over 100 µM.

Regarding `Cc1ccc(/C=C2\SC(=S)N(/N=C/C3C=C([N+](=O)[O-])C=CC3=O)C2=O)o1` (stereo not given) [(5Z)-5-[(5-methylfuran-2-yl)methylidene]-3-[[(E)-(3-nitro-6-oxocyclohexa-2,4-dien-1-ylidene)methyl]amino]-2-sulfanylidene-1,3-thiazolidin-4-one], the IC50 was over 100 µM. The result for `C#CCOCCOCCOCCNc1nc(N2CCN(C(=O)CCCCCCCCCCNC(=O)[C@H]([C@@H](C)CC)n3cc(CCCCN=C(N)N)nn3)CC2)nc(N2CCN(C(=O)CCCCCCCCCCNC(=O)[C@@H]([C@H](C)O)n3cc(C)nn3)CC2)n1` [GT-RI] reads 1.04 µM; that for `C#CCOCCOCCOCCNc1nc(N2CCN(C(=O)CCCCCCCCCCNC(=O)Cn3cc(CCCCCN)nn3)CC2)nc(N2CCN(C(=O)CCCCCCCCCCNC(=O)Cn3cc(C[C@@H](C)O)nn3)CC2)n1` [KG-TG], over 100 µM. The result for `O=C1C=CC(C=NNC(=S)Nc2ccccc2[N+](=O)[O-])C=C1O` (stereo not given) [MLS000417596] reads 1.53 µM.

The compound `C#CCOCCOCCOCCNc1nc(N2CCN(C(=O)CCCCCCCCCCNC(=O)[C@@H](CCSC)n3cc(CCO)nn3)CC2)nc(N2CCN(C(=O)CCCCCCCCCCNC(=O)[C@H]([C@@H](C)CC)n3cc(CCCCCN)nn3)CC2)n1` [MLS002153719] yielded a half-maximal inhibitory concentration (IC50) of over 100 µM. The value for `O=C(Nn1c(O)csc1=S)C(=O)Nn1c(O)csc1=S` [SMR000349781] was over 100 µM; that for `O=C1C=CC(/C=C/c2nc(O)c([N+](=O)[O-])c(=O)[nH]2)C=C1O` (stereo not given) [SMR000524347] was 1.12 µM. The compound `COc1cc(C=CC(=O)CC(=O)C=Cc2ccc(O)cc2)ccc1O` [demethoxycurcumin] returned an IC50 of over 100 µM.
